Ratio and Kapp data for 17 molecules are collected here from ChEMBL document CHEMBL3227934, “Cardioselectivity of beta-adrenoceptor blocking agents 1. 1-[(4-Hydroxyphenethyl)amino]-3-(aryloxy)propan-2-ols” (J Med Chem, 1979).

SMILES strings stand for the structures.

The species entered for one test is Rattus norvegicus. In words: Cardio selectivity ratio of Kapp for beta2 adrenergic receptor in rat lung muscle to Kapp for beta1 adrenergic receptor in rat ventricular muscle.
For test [1], the target named is Beta-1 adrenergic receptor (Rattus norvegicus) (UniProt P18090).
Sequence of Beta-1 adrenergic receptor (Rattus norvegicus) (P18090 whole entry, looked up): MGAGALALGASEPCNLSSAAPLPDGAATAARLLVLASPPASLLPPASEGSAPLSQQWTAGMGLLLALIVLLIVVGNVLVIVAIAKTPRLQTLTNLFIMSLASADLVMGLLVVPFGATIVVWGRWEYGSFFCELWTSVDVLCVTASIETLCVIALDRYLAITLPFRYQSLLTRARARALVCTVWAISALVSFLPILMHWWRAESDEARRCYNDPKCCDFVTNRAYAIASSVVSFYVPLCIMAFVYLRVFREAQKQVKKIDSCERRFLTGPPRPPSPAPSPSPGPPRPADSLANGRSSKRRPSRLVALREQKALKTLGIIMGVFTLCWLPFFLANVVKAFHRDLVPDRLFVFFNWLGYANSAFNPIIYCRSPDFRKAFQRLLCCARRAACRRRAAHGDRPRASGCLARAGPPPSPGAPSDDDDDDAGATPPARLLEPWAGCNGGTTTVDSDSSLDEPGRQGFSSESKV
Description: Displacement of [3H]DHA from beta1 adrenergic receptor in rat ventricular muscle by competitive binding assay
The target of test [2] is Beta-2 adrenergic receptor (Rattus norvegicus) (UniProt P10608).
Sequence of Beta-2 adrenergic receptor (Rattus norvegicus) (P10608 whole entry, looked up): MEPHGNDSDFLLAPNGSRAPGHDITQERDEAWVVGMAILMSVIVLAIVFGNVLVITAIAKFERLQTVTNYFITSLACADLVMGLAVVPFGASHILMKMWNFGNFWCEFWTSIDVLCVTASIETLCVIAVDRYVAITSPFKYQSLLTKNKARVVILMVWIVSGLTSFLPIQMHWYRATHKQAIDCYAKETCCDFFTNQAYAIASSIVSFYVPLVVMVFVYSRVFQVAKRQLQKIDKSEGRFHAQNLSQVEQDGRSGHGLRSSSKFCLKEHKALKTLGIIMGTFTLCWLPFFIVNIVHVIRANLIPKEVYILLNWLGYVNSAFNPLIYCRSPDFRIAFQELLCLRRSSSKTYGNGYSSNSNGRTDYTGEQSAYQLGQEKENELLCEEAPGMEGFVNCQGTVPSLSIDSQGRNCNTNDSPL
Description: Displacement of [3H]DHA from beta2 adrenergic receptor in rat lung muscle by competitive binding assay

As to `C=CCc1ccccc1OCC(O)CNC(C)C` (racemic), the Ratio in the test listed under Rattus norvegicus is 2.6. The Kapp in test [1] amounted to 0.0077 µM; in test [2], 0.02 µM.

On to `COc1ccc(CCNCC(O)COc2ccccc2)cc1OC` (centres undefined), for which, in the test listed under Rattus norvegicus, the Ratio amounted to 4.7. Also, the Kapp is 0.38 µM in test [1] and 1.8 µM in test [2].

In the case of `CC(C)NCC(O)COc1ccccc1` (centres undefined), the Ratio in the test filed under Rattus norvegicus came out at 1.5. In addition, the Kapp was 0.24 µM in test [1] and 0.37 µM in test [2].

Take `CC(=O)Nc1ccc(OCC(O)CNCCc2ccc(O)cc2)cc1` (centres undefined): the Ratio in the test listed under Rattus norvegicus amounted to 4.9. The results for the Kapp in test [1] and in test [2] were 18 µM and 88 µM, respectively.

Take `CC(=O)Nc1ccc(OCC(O)CNC(C)C)cc1` (racemic): the Ratio in the test filed under Rattus norvegicus stood at 17. Moreover, the figures for the Kapp in test [1] and in test [2] were 18 µM and 313 µM, respectively.

As to `C=CCc1ccccc1OCC(O)CNCCc1ccc(O)cc1` (centres undefined), in the test filed under Rattus norvegicus, the Ratio is 1.3. The Kapp worked out at 0.2 µM in test [1] and 0.27 µM in test [2].

`CCCCCC(=O)Nc1ccc(OCC(O)CNC(C)C)cc1` (centres undefined): the Ratio in the test filed under Rattus norvegicus was 16. Further, the results for the Kapp in test [1] and in test [2] were 2.2 µM and 34 µM, respectively.

With `CCCCCC(=O)Nc1ccc(OCC(O)CNCCc2ccc(OC)c(OC)c2)cc1` (centres undefined), the Ratio in the test filed under Rattus norvegicus came out at 77. The Kapp in test [1] is 0.35 µM; in test [2], 27 µM.

For `COc1ccc(CCNCC(O)COc2ccc(NC(C)=O)cc2)cc1OC` (centres undefined), the Ratio in the test listed under Rattus norvegicus came out at 32. Further, the Kapp is 7 µM in test [1] and 224 µM in test [2].

`O=C1CCCc2c(OCC(O)CNCCc3ccc(O)cc3)cccc21` (centres undefined): the Ratio in the test filed under Rattus norvegicus came out at 1.5. Moreover, the Kapp is 0.37 µM in test [1] and 0.56 µM in test [2].

On to `CC(C)(C)NCC(O)COc1cccc2c1CCCC2=O` (centres undefined), for which the Ratio in the test listed under Rattus norvegicus was found to be 1.1. Also, the Kapp in test [1] was 0.015 µM; in test [2], 0.017 µM.

`CCCCCC(=O)Nc1ccc(OCC(O)CNCCc2ccc(OC)c(OC)c2)c(Cl)c1` (centres undefined): the Ratio in the test listed under Rattus norvegicus was 53. The figures for the Kapp in test [1] and in test [2] were 0.32 µM and 17 µM, respectively.

As for `CC(=O)Nc1ccccc1OCC(O)CNCCc1ccc(O)cc1` (centres undefined), the Ratio in the test filed under Rattus norvegicus worked out at 7.6. Besides, the Kapp in test [1] came to 2.1 µM; in test [2], 16 µM.

As for `CCCCCC(=O)Nc1ccc(OCC(O)CNCCc2ccc(O)cc2)c(Cl)c1` (centres undefined), in the test listed under Rattus norvegicus, the Ratio is 5. Further, the Kapp was found to be 2.7 µM in test [1] and 14 µM in test [2].

On to `CCCCCC(=O)Nc1ccc(OCC(O)CNCCc2ccc(O)cc2)cc1` (centres undefined), for which the Ratio in the test filed under Rattus norvegicus turned out to be 10. The Kapp amounted to 3.9 µM in test [1] and 39 µM in test [2].

In turn, `CC(C)NCC(O)COc1cccc2[nH]ccc12` (racemic) came in with a Kapp in test [1] of 0.014 µM.

`Oc1ccc(CCNCC(O)COc2ccccc2)cc1` (centres undefined): the Ratio in the test filed under Rattus norvegicus stood at 0.3. Moreover, the Kapp in test [1] stood at 0.7 µM; in test [2] it was 0.24 µM.
